Results taken from paper PMC2000878, “Module structure of interphotoreceptor retinoid-binding protein (IRBP) may provide bases for its complex role in the visual cycle – structure/function study of Xenopus IRBP” (BMC Biochemistry, 2007).
Read-outs that look alike come from different tables or passages of the source.

Key:
full-length Xenopus IRBP = target: T1, full-length Xenopus IRBP (Xenopus laevis, UniProt Q7SZI7); experiment: Fluorometric titration (ligand fluorescence enhancement, protein quenching, energy transfer); assay type: binding
T1 construct: We expressed the full-length IRBP as well as its individual modules as thioredoxin-fusion proteins using pTrxFus and pThioHis vectors; made in house; host or cells: E. coli Top10 (pThioHis)
T1 sequence (Q7SZI7 23-1219): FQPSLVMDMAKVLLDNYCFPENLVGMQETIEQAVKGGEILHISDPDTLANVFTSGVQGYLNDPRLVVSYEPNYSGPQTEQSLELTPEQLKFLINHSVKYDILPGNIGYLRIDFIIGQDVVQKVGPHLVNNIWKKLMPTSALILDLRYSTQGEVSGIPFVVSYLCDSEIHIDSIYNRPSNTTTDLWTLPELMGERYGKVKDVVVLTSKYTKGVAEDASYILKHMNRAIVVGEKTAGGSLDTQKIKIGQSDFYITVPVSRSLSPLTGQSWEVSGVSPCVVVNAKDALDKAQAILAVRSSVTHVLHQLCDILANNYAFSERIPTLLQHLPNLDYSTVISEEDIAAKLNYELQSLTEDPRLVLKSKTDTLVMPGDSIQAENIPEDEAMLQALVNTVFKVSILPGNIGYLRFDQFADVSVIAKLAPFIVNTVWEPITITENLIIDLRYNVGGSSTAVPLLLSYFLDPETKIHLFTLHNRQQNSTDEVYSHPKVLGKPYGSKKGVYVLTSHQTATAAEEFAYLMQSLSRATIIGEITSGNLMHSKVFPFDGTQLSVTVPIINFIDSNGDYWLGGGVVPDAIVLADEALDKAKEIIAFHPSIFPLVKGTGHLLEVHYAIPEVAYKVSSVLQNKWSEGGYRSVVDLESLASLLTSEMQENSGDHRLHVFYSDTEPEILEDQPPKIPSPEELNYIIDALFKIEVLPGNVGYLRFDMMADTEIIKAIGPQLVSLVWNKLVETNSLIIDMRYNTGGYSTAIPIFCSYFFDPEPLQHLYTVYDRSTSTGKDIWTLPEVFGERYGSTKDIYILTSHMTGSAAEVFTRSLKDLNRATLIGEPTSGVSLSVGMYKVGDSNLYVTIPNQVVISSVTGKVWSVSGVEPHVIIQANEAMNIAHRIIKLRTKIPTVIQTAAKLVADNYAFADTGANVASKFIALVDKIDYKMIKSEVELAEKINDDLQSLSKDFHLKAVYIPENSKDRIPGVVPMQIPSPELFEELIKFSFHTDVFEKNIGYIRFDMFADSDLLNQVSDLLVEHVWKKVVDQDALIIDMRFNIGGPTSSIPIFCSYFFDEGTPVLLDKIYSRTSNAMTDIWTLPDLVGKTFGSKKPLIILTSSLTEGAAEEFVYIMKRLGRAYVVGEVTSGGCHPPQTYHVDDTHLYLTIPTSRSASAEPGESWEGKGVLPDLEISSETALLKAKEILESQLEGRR
From the text: The binding parameters of retinoid-binding proteins including IRBP may be determined by fluorescence spectroscopy. The method utilizes changes in quantum yield occurring during ligand binding. Such changes are represented by enhancement of ligand fluorescence, quenching of intrinsic protein fluorescence, and transfer of energy from protein to bound ligand. Fluorescence enhancement occurs if the quantum yield of the ligand's fluorescence is higher in the hydrophobic environment of the ligand-binding domain compared to that outside of the domain.
[…] We previously derived an equation that is generally useful for describing such quantum yield changes that are consequent upon ligand binding. This equation has been previously applied to the analysis of binding by monitoring the enhancement of retinol fluorescence. In this case, […], the fluorescence enhancement (Fenh) depends on the total retinol concentration (Rt), the dissociation constant (Kd ^all-trans), the number of retinol-binding sites per protein molecule (N) and the total protein concentration (Pt).
(§1) Assuming that there is a single type of noninteracting site on the protein, (Fenh) is expected to be linearly related to the concentration of bound retinol molecules. Fenh is given by the relation
(§2) Fenh=C1+C2[Rtall−trans−(Rtall−trans+NPt+Kdall−trans)^2−4NPtRtall−trans] MathType@MTEF@5@5@+=feaafiart1ev1aaatCvAUfKttLearuWrP9MDH5MBPbIqV92AaeXatLxBI9gBaebbnrfifHhDYfgasaacH8akY=wiFfYdH8Gipec8Eeeu0xXdbba9frFj0=OqFfea0dXdd9vqai=hGuQ8kuc9pgc9s8qqaq=dirpe0xb9q8qiLsFr0=vr0=vr0dc8meaabaqaciaacaGaaeqabaqabeGadaaakeaacqWGgbGrdaWgaaWcbaGaemyzauMaemOBa4MaemiAaGgabeaakiabg2da9iabdoeadnaaBaaaleaacqaIXaqmaeqaaOGaey4kaSIaem4qam0aaSbaaSqaaiabikdaYaqabaGcdaWadaqaaiabdkfasnaaDaaaleaacqWG0baDaeaacqWGHbqycqWGSbaBcqWGSbaBcqGHsislcqWG0baDcqWGYbGCcqWGHbqycqWGUbGBcqWGZbWCaaGccqGHsisldaGcaaqaamaabmaabaGaemOuai1aa0baaSqaaiabdsha0bqaaiabdggaHjabdYgaSjabdYgaSjabgkHiTiabdsha0jabdkhaYjabdggaHjabd6gaUjabdohaZbaakiabgUcaRiabd6eaojabdcfaqnaaBaaaleaacqWG0baDaeqaaOGaey4kaSIaem4saS0aa0baaSqaaiabdsgaKbqaaiabdggaHjabdYgaSjabdYgaSjabgkHiTiabdsha0jabdkhaYjabdggaHjabd6gaUjabdohaZbaaaOGaayjkaiaawMcaamaaCaaaleqabaGaeGOmaidaaOGaeyOeI0IaeGinaqJaemOta4Kaemiuaa1aaSbaaSqaaiabdsha0bqabaGccqWGsbGudaqhaaWcbaGaemiDaqhabaGaemyyaeMaemiBaWMaemiBaWMaeyOeI0IaemiDaqNaemOCaiNaemyyaeMaemOBa4Maem4CamhaaaqabaaakiaawUfacaGLDbaaaaa@8490@
The equation was fit to the data by nonlinear least-squares analysis. […] For the quenching studies the inner filter effect was accounted for by graphical correction as previously described. Fluorescence measurements were made using an SLM 8000TM C photon counting spectrofluorometer corrected for wavelength dependence of source energy and detector response.

Xenopus IRBP Module 2 = target: T2, Xenopus IRBP Module 2 (Xenopus laevis, UniProt Q7SZI7); set-up: method as in Loew et al. Exp Eye Res. 2001, 73:257–264; details: ref Loew et al. Exp Eye Res. 2001, 73:257–264, cited from earlier work
T2 construct: cDNAs corresponding to the full-length IRBP, module 1, and module 2 were expressed in pThioHis; modules 3 and 4 were expressed in pTrxFus; made in house; host or cells: E. coli Top10 (pThioHis)
T2 sequence (Q7SZI7 319-617 limits assumed): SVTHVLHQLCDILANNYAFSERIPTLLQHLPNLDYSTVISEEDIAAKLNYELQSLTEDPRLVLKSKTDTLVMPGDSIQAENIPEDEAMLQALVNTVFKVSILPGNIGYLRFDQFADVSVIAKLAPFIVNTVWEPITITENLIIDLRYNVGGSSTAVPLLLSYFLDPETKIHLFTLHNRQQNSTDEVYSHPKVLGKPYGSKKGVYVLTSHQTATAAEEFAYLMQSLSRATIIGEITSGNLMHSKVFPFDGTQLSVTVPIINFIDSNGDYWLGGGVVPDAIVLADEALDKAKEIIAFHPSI

Xenopus IRBP Module 1 = Xenopus IRBP Module 1 (Xenopus laevis, UniProt Q7SZI7); experiment: Fluorometric titration (enhancement, quenching); assay type: binding; set-up: cDNAs corresponding to the full-length IRBP, module 1, and module 2 were expressed in pThioHis; modules 3 and 4 were expressed in pTrxFus; made in house; host or cells: E. coli Top10 (pThioHis)
Xenopus IRBP Module 1, sequence (Q7SZI7 23-315): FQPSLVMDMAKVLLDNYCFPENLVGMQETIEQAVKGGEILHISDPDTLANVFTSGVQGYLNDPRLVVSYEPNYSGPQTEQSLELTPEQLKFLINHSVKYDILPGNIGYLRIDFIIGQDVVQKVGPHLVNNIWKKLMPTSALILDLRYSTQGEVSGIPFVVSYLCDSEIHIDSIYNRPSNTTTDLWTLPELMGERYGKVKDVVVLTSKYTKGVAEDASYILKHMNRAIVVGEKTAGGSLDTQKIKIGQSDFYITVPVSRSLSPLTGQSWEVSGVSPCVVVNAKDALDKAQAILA
From the text: (§3) Enhancement of retinol fluorescence and quenching of the intrinsic protein fluorescence were used to monitor binding of all-trans retinol to the recombinant IRBPs. We previously derived an equation that is generally useful for describing such quantum yield changes that are consequent upon ligand binding. This equation has been previously applied to the analysis of binding by monitoring the enhancement of retinol fluorescence. In this case, where excitation is at 330 nm and emission is monitored at 480, the fluorescence enhancement (Fenh) depends on the total retinol concentration (Rt), the dissociation constant (Kd ^all-trans), the number of retinol-binding sites per protein molecule (N) and the total protein concentration (Pt).
as §1, §2
(§4) The equation was fit to the data by nonlinear least-squares analysis. To follow the quenching of the protein's intrinsic fluorescence the excitation and emission wavelengths were set to 280 nm and 340 nm, respectively, while the protein was titrated with all-trans retinol. For the quenching studies the inner filter effect was accounted for by graphical correction as previously described. Fluorescence measurements were made using an SLM 8000TM C photon counting spectrofluorometer corrected for wavelength dependence of source energy and detector response.

Xenopus IRBP Module 3 = target: T3, Xenopus IRBP Module 3 (Xenopus laevis, UniProt Q7SZI7); experiment: Fluorometric titration (enhancement, quenching); assay type: binding
T3 construct: cDNAs corresponding to the full-length IRBP, module 1, and module 2 were expressed in pThioHis; modules 3 and 4 were expressed in pTrxFus; made in house; host or cells: E. coli GI724 / GI698 (pTrxFus)
T3 sequence (Q7SZI7 616-922): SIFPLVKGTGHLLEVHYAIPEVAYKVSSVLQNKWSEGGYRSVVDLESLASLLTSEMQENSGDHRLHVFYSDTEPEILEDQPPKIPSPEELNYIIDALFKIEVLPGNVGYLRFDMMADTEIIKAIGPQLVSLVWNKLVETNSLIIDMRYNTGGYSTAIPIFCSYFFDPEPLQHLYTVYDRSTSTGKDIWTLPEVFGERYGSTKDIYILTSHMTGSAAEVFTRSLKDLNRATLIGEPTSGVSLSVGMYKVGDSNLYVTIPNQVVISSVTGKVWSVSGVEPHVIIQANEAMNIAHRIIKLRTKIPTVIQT
From the text: as §3, §1, §2, §4

Xenopus IRBP Module 4 = target: T4, Xenopus IRBP Module 4 (Xenopus laevis, UniProt Q7SZI7); experiment: Fluorometric titration (enhancement, quenching); assay type: binding
T4 construct: cDNAs corresponding to the full-length IRBP, module 1, and module 2 were expressed in pThioHis; modules 3 and 4 were expressed in pTrxFus; made in house; host or cells: E. coli GI724 / GI698 (pTrxFus)
T4 sequence (Q7SZI7 923-1219): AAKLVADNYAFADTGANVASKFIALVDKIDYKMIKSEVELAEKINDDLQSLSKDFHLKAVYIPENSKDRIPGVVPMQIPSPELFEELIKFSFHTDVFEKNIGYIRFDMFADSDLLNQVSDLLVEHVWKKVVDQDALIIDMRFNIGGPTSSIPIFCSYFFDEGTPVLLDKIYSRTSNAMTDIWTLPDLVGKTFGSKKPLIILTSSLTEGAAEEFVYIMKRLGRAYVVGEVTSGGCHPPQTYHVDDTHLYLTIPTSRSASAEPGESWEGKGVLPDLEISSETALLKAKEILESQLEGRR
From the text: as §3, §1, §2, §4

[1] = 9-AS fluorescence enhancement, ex 360 nm, em 440 nm
[2] = 9-AS fluorescence enhancement, ex 360 nm, em 440 nm, read-out: Kd, Enhancement
[3] = quenching by 9-AS, ex 280 nm, em 340 nm
[4] = quenching by 9-AS, ex 280 nm, em 340 nm, read-out: Kd, Quenching

- Binding sites (N), Enhancement (full-length Xenopus IRBP; [1]): 2.58 ± 0.17
- Kd (full-length Xenopus IRBP; [2]): 280 ± 70 nM
- Binding sites (N), Quenching (full-length Xenopus IRBP; quenching of protein fluorescence by 9-AS, ex 280 nm, em 340 nm): 0.18 ± 0.29
- Kd (full-length Xenopus IRBP; quenching of protein fluorescence by 9-AS, ex 280 nm, em 340 nm, read-out: Kd, Quenching): 290 ± 110 nM
- Binding sites (N), Enhancement (Xenopus IRBP Module 1; [1]): 2.55 ± 0.24
- Kd (Xenopus IRBP Module 1; [2]): 330 ± 150 nM
- Binding sites (N), Quenching (Xenopus IRBP Module 1; [3]): 0.97 ± 0.19
- Kd (Xenopus IRBP Module 1; [4]): 420 ± 100 nM
- Binding sites (N), Enhancement (Xenopus IRBP Module 3; [1]): 2.76 ± 0.09
- Kd (Xenopus IRBP Module 3; [2]): 160 ± 410 nM
- Binding sites (N), Quenching (Xenopus IRBP Module 3; [3]): 1.06 ± 0.07
- Kd (Xenopus IRBP Module 3; [4]): 190 ± 30 nM
- Binding sites (N), Enhancement (Xenopus IRBP Module 4; [1]): 2.23 ± 0.09
- Kd (Xenopus IRBP Module 4; [2]): 82 ± 37 nM
- Binding sites (N), Quenching (Xenopus IRBP Module 4; [3]): 0.30 ± 0.09
- Kd (Xenopus IRBP Module 4; [4]): 160 ± 40 nM
SMILES: CCCCCCCCCC(CCCCCCCC(=O)O)OC(=O)c1c2ccccc2cc2ccccc12 (centres unmarked) [9-AS, 9-(9-anthroyloxy) stearic acid]
- Binding sites (N), Enhancement (Xenopus IRBP Module 2; [1]): 1.49 ± 0.15
- Kd (Xenopus IRBP Module 2; [2]): 250 ± 80 nM
- Binding sites (N), Quenching (Xenopus IRBP Module 2; [3]): 0.93 ± 0.06
- Kd (Xenopus IRBP Module 2; [4]): 130 ± 20 nM
